# Laboratory results from paper PMC4459817, “Vasculotide reduces endothelial permeability and tumor cell extravasation in the absence of binding to or agonistic activation of Tie2” (EMBO Molecular Medicine, 2015).
# System: human microvascular ECs of dermal blood vessel origin (HMVEC-DBl)
# Experiment: modified Boyden chamber, thrombin-stimulated FITC-dextran permeability, HMVEC-DBl
# Format: cell-based
# Details: Fig1D
# Description: ECs were first treated with Vasculotide (VT), PBS (vehicle/negative control), Ang1 (positive control), PEG-Cys (polyethylene glycol backbone), T7c (non-PEGylated CHHHRHSF peptides), or VT in the presence of 100-fold molar excess of T7c. The concentrations used, 10–20 ng/mL VT and 200–400 ng/mL Ang1, are estimated molar equivalents (0.71–1.43 nM). Thirty minutes later, ECs were stimulated with thrombin, 0.1% BSA (vehicle/negative control), or EDTA (positive control). Another 30mins later, the amount of FITC-dextran diffusion into the lower chambers (A, D) provides a measure of endothelial permeability. CMTPX-labeled tumor cells (TCs) were then dispensed into inserts, and the amount of TC fluorescence emitting from the underside of insert membranes after 20 h (B–C) or 28 h (E) reflects the efficiency of trans-endothelial TC migration. Representative fluorescent images (10×) of membrane undersides are shown in (C), where DAPI-stained nuclei of ECs/TCs are shown in blue, ‘extravasated’ CMTPX-labeled TCs are shown in red, and the # of CMTPX^+ pixels are shown numerically in red. Means ± SEM are shown (A,B,D,E). Three experiments (twice with HMVEC-LBl and once with HMVEC-DBl) were run with n = 3–5 inserts (independent biological replicates) per group and analyzed by two-sampled unpaired t-tests. […]
# Endothelial cells (ECs) were grown on cell culture inserts with uncoated 8-μm-pore PET filter membranes to 100% confluency. […] After 30 min of thrombin stimulation or 4–6 h of TC-CM stimulation, FITC fluorescence (ex/em = 490/520 nm) was measured from a 50 μl sample of the lower chamber media. […] CMPTX fluorescence from migrated TCs was then quantified from 10× microscopy images using a MATLAB (MathWorks, Natick, MA, USA) script; five images (technical replicates) were analyzed per insert. […]
sequence,measurement,setting,value
"CHHHRHSF [Vasculotide, 4-armed maleimide-functionalized polyethylene glycol (PEG) backbone to link together four cysteine-capped T7 peptides, that is, CHHHRHSF]",anti-permeability effect of VT in presence of 100-fold molar excess of T7c,HMVEC-DBl,dampened the effects of VT
same,transendothelial permeability of FITC-dextran,"thrombin-stimulated HMVEC-DBl, VT 10–20 ng/mL, FITC fluorescence ex/em 490/520 nm, n = 3–5 inserts",counteract thrombin-stimulated increases in transendothelial permeability of FITC-dextran (P < 0.05
